Assay results: PMC6721120, “Inhibitory Effects of Ginsenoside Ro on the Growth of B16F10 Melanoma via Its Metabolites” (Molecules, 2019)
Values after ≈ are worked out from the molar mass of the structure shown. Where two headings read alike, the source gives them in different places. Each block holds one compound with its values, some of them ahead of it.

What was measured:
[1] = HPLC-MS determination of Ro metabolites in plasma of tumour-bearing mice; assay type: in vivo, C57BL/6J mice; settings: plasma after 15 days Ro 25 mg/kg intraperitoneal; for detection in plasma of Ro-treated tumour-bearing mice: HPLC-MS
Description: B16F10 cells were cultured in DMEM containing 10% FBS. […] Normal and model mice were administered normal saline. […] The tumour inhibition rate was calculated.
Identification of the metabolites of Ro was done using the same HPLC Trap MS system as previously described. Briefly, an aliquot of 60 μL plasma samples was removed from the −80 °C storage and thawed under ambient temperature and mixed vigorously with 300 μL cold methanol. The supernatant was placed in a centrifuge tube (1500 μL) after 10 min of centrifugation at 10,000 rpm. The precipitate was washed three times using 100 μL cold methanol. All of the supernatants were combined and dried under nitrogen flow at ambient temperature. The residue was dissolved using 80 μL methanol (3 min of vortexing), and the solution was diluted in 240 μL pure water. The mixture was centrifuged at 10,000 rpm for 10 min. All of the supernatant was loaded onto a flash column (25 × 2 mm id, Chromolith; Merck, Darmstadt, Germany). This flash column was connected to an analytical column (50 × 2 mm id, Chromolith; Merck) for HPLC-MS analysis. The separation was conducted using a gradient mobile phase consisting of water (A, containing 0.01% ammonium hydroxide) and acetonitrile (B). The program of the mobile phase was as follows: 10% B for the first 5 min; then a linear gradient of 10–15% B for 5–7 min, 15–40% B for 7–40 min, and 40–70% B for 40–45 min; this composition was maintained for 45–60 min and then returned to the initial condition for 5 min. The flow rate was 0.2 mL/min. The method for the Trap MS detection was the same as previously described.

B16F10 melanoma cells = assay: MTT cell viability assay; assay type: cell-based; settings: 24 h; for IC50: Mus musculus, B16-F10, MTT, read-out: half maximal inhibitory concentration (IC50)
Description: In this study, Ro was dissolved in dimethyl sulfoxide (DMSO) and diluted in DMEM and then filtered using a 0.22 μm membrane. The final concentration of DMSO in cell culture medium was 0.1%, and 0.1% DMSO-treated cells were used as controls. The effect of Ro on B16F10 cell growth in vitro was performed using the MTT assay. Briefly, exponentially growing B16F10 (1 × 10^4 cells/well) cells were seeded onto 96-well plates and incubated for 24 h in complete medium. After 24 h incubation, the cells were treated with various concentrations of Ro (0, 1, 3, 10, 30, 100 μg/mL) for 24 h, and MTT (0.5%, 20 μL) was then added to each well and incubated for an additional 4 h at 37 °C. The formazan crystals were dissolved in DMSO (150 μL), and the absorbance at 490 nm was measured using a microplate reader (BioTek Epoch; BioTek, Winooski, VT, USA)
The metabolites (standard substance) of Ro were dissolved in the same manner as Ro. Briefly, IVa, R1, and E were dissolved in dimethyl sulfoxide (DMSO), diluted in DMEM, and then filtered using a 0.22 μm membrane. The final concentration of DMSO in cell culture medium was 0.1%, and 0.1% DMSO-treated cells were used as controls. The effects of IVa, R1, and E on B16F10 cell growth were evaluated using the MTT assay as previously described. The cells were treated with various concentrations of IVa (0, 1, 3, 10, 30, 100 μg/mL), R1 (0, 5, 10, 20, 30, 40 μg/mL), and E (0, 2, 4, 6 μg/mL) for 24 h. After incubation, MTT (0.5%, 20 μL) was added and incubated for 4 h at 37 °C. Then the supernatants were carefully removed, and 150 μL DMSO was added to each well. After 10 min of incubation and vibration, the absorbance was read at a wavelength of 490 nm. IC50 values were calculated using Probit Analysis with SPSS 22.0 (SPSS Inc., Chicago, IL, USA).

[2] = test system: human umbilical vein endothelial cells (HUVECs); assay: Tube formation assay on Matrigel; assay type: cell-based
Description: The tube formation assay was performed as previously described with some modifications. Matrigel (BD Biosciences, San Jose, CA, USA) was thawed overnight at 4 °C. Next, 50 μL Matrigel was coated on each well of the pre-chilled 96-well plates and then incubated at 37 °C for 1 h. HUVECs (5 × 10^4 cells/well) were seeded on the Matrigel and treated with various concentrations of Ro (0, 1, 3, 10, 30, 100 μg/mL), R1 (0, 5, 10, 20, 30, 40 μg/mL), IVa (0, 1, 3, 10, 30, 100 μg/mL), and E (0, 2, 4, 6, 8, 10 μg/mL). After incubation for 5 h, the formation of HUVEC tubular structures was captured using a microscope (Nikon eclipse Ti; Nikon, Tokyo, Japan). The tube length was quantified using Image-Pro Plus 6.0 software.

B16F10 melanoma tumour = assay: Tumour xenograft experiment in B16F10 tumour-bearing mice; assay type: in vivo, C57BL/6J mice; settings: 15 days; for mean tumour weight: model group 1.50 g; for tumour growth (tumour volume): R1 25, IVa 25, E 5, CTX 20 mg/kg intraperitoneal, vs model group, p < 0.05
Description: (§1) An anti-tumour assay was conducted in a mouse xenograft model. B16F10 cells were cultured in DMEM containing 10% FBS. After the collection of cells, the cells were re-suspended in normal saline to the appropriate concentrations. Next, 0.1 mL of the B16F10 cell suspension (1 × 10^6 cells) was subcutaneously injected via the right axillary region of the C57BL/6J mice. The tumour-bearing mice were randomly divided into three groups (n = 6/group): model control group, positive control group, and Ro (25 mg/kg) administration group. […] Normal and model mice were administered normal saline. The mice in the positive control group received CTX (20 mg/kg). The successive intraperitoneal injection of drugs into the mice from the day after tumour inoculation and the body weights were monitored every 2 days. After 15 days, all mice were sacrificed, and tumours were taken out and measured as previously described. The thymus and spleen were also removed and weighed to calculate the thymus and spleen indices. The tumour inhibition rate was calculated. The blood samples were collected from the retrobulbar vessels and added into tubes containing heparin. Subsequently, plasma samples were prepared by centrifugation for 10 min at 3800 rpm and stored at −80 °C for HPLC-MS analysis.
A xenograft experiment was performed using the same method as described in Section 2.2. Briefly, after the mice were inoculated with tumour cells, they were randomly divided into […] (n = 6/group): model control group, positive control group (CTX, 20 mg/kg), R1 (25 mg/kg), IVa (25 mg/kg), and E (5 mg/kg) administration groups. […] Normal and model mice were administered normal saline. Drugs were intraperitoneally injected into the mice for 15 consecutive days. Tumour volumes were measured every 2 days, and tumour growth curves were plotted. At the end of the experiment, the mice were sacrificed, and the tumour weight and tumour growth inhibition rates were calculated.

[3] = Description: as §1
erythrocytes = assay: Haemolysis test; assay type: cell-based, Sprague Dawley rats; settings: all concentrations up to 100 μg/mL
Description: (§2) To evaluate the haemocompatibility of Ro, the haemolysis test was performed as previously described. Arterial blood was obtained from healthy Sprague Dawley rats. Then erythrocytes were separated from the plasma and lymphocytes by centrifugation (3000 rpm, 5 min) at 4 °C, washed three times with normal saline, and suspended in normal physiological saline at a haematocrit of 2%. Erythrocytes were used immediately after isolation. Next, 2.5 mL erythrocyte suspension and 2.5 mL medicated saline solution were added to a 10 mL centrifuge tube. The final concentrations of Ro were 1, 3, 10, 30, and 100 μg/mL. The negative and positive controls were normal physiological saline and 0.2% Triton X-100, respectively. The samples were incubated for a specific time period at 37 °C for 60 min. Next, the tube was centrifuged at 3000 rpm for 5 min. Finally, the optical density (OD) was obtained at a wavelength of 545 nm. Three parallel samples were laid in each group. The mean value of the three samples was obtained as the group OD value. The HR was expressed as the percentage and calculated according to the equation:HR = (ODt − ODn)/(ODp − ODn) × 100%,(1) where ODt indicates the OD value of the tested group, and ODn and ODp are the OD values of the negative and positive control groups, respectively. A haemolysis rate less than 5% is regarded as a nontoxic effect level.

Haemolysis test = assay type: cell-based, Sprague Dawley rats; settings: Sprague-Dawley, rat, isolated erythrocytes (2% haematocrit suspension), 37 °C, 60 min, read-out: Haemolysis Rate (%)
Description: as §2

[4] = 5 h incubation, IVa 1–100, R1 5–40, E 2–10 μg/mL
[5] = after 15 days intraperitoneal, CTX 20 mg/kg, Ro 25 mg/kg

detection in plasma of Ro-treated tumour-bearing mice [1]: not detected
Compound: CC1(C)CC[C@]2(C(=O)O)CC[C@]3(C)C(=CC[C@@H]4[C@@]5(C)CC[C@H](O)C(C)(C)[C@@H]5CC[C@]43C)[C@@H]2C1 [OA, oleanolic acid, reference compound]

detection in plasma of Ro-treated tumour-bearing mice [1]: not detected
Compound: Glycosyl oleanolate

Compound: CC1(C)CC[C@]2(C(=O)O[C@@H]3O[C@H](CO)[C@@H](O)[C@H](O)[C@H]3O)CC[C@]3(C)C(=CC[C@@H]4[C@@]5(C)CC[C@H](O[C@@H]6O[C@H](C(=O)O)[C@@H](O)[C@H](O)[C@H]6O)C(C)(C)[C@@H]5CC[C@]43C)[C@@H]2C1 [IVa, chikusetsusaponin IVa]
viability (B16F10 melanoma cells; 100 µg/mL): slightly decreased
cytotoxic effects (B16F10 melanoma cells; 1–30 µg/mL): no cytotoxic effects
HUVEC tube formation [2, 4]: markedly inhibited
tumour inhibition rate (B16F10 melanoma tumour; 25 mg/kg intraperitoneal): 64.7%
mean tumour weight (B16F10 melanoma tumour; 25 mg/kg intraperitoneal): 0.53 g
tumour growth (tumour volume) (B16F10 melanoma tumour): significantly suppressed tumour growth

IC50 (B16F10 melanoma cells): 2.58 µg/mL (≈ 4.08 µM)
Compound: CC1(C)CC[C@]2(C(=O)O)CC[C@]3(C)C(=CC[C@@H]4[C@@]5(C)CC[C@H](O[C@@H]6O[C@H](C(=O)O)[C@@H](O)[C@H](O)[C@H]6O)C(C)(C)[C@@H]5CC[C@]43C)[C@@H]2C1 [E, calenduloside E]
HUVEC tube formation [2, 4]: markedly inhibited
tumour inhibition rate (B16F10 melanoma tumour; 5 mg/kg intraperitoneal): 85.4%
mean tumour weight (B16F10 melanoma tumour; 5 mg/kg intraperitoneal): 0.22 g
tumour growth (tumour volume) (B16F10 melanoma tumour): significantly suppressed tumour growth

Compound: CC1(C)CC[C@]2(C(=O)O[C@@H]3O[C@H](CO)[C@@H](O)[C@H](O)[C@H]3O)CC[C@]3(C)C(=CC[C@@H]4[C@@]5(C)CC[C@H](O[C@@H]6O[C@H](C(=O)O)[C@@H](O)[C@H](O)[C@H]6O[C@@H]6O[C@H](CO)[C@@H](O)[C@H](O)[C@H]6O)C(C)(C)[C@@H]5CC[C@]43C)[C@@H]2C1 [Ro, ginsenoside Ro]
Organ Indices Spleen ([3]; mouse, in vivo): 3.54 ± 1.03 ×100, mg/g
Organ Indices Thymus ([3]; mouse, in vivo): 1.67 ± 0.25 ×100, mg/g
Weight (g) After ([3]; mouse, in vivo): 24.73 ± 1.43 g
Weight (g) Before ([3]; mouse, in vivo): 22.91 ± 1.12 g
haemolysis ratio (HR%) (erythrocytes): less than 5%
hemolysis at 60 min, 1 μg/mL (Haemolysis test; 1 μg/mL): 0.15 ± 0.13%
hemolysis at 60 min, 3 μg/mL (Haemolysis test; 3 μg/mL): 0.31 ± 0.13%
hemolysis at 60 min, 10 μg/mL (Haemolysis test; 10 μg/mL): 0.23 ± 0.23%
hemolysis at 60 min, 30 μg/mL (Haemolysis test; 30 μg/mL): 0.15 ± 0.13%
hemolysis at 60 min, 100 μg/mL (Haemolysis test; 100 μg/mL): 0.31 ± 0.35%
effect on B16F10 cell growth in vitro (B16F10 melanoma cells; 0, 1, 3, 10, 30, 100 μg/mL): little effect
HUVEC tube formation ([2]; 100 μg/mL, 5 h): stimulated tube formation
HUVEC tube formation ([2]; 1–30 μg/mL, 5 h): no effects
tumour inhibition rate (B16F10 melanoma tumour; 25 mg/kg intraperitoneal): 75.7%

Compound: O=P1(N(CCCl)CCCl)NCCCO1 (centres unmarked) [CTX, cyclophosphamide, reference compound]
Organ Indices Spleen [3, 5]: 2.98 ± 0.86 ×100, mg/g
Organ Indices Thymus [3, 5]: 0.56 ± 0.09 ×100, mg/g
Weight (g) After ([3]; body weight after 15 days intraperitoneal, CTX 20 mg/kg, Ro 25 mg/kg): 22.27 ± 1.02 g
Weight (g) Before ([3]; body weight before treatment, CTX 20 mg/kg, Ro 25 mg/kg): 22.29 ± 0.85 g
tumour growth (tumour volume) (B16F10 melanoma tumour): significantly suppressed tumour growth

plasma signal intensity of R1 relative to E [1]: ~100 fold
plasma signal intensity of R1 relative to IVa [1]: ~10 fold
plasma signal intensity of R1 relative to Ro [1]: approximately two-fold
detection in plasma of Ro-treated tumour-bearing mice [1]: most abundant metabolite in the plasma
IC50 (B16F10 melanoma cells): 24.5 µg/mL (≈ 30.8 µM)
Compound: CC1(C)CC[C@]2(C(=O)O)CC[C@]3(C)C(=CC[C@@H]4[C@@]5(C)CC[C@H](O[C@@H]6O[C@H](C(=O)O)[C@@H](O)[C@H](O)[C@H]6O[C@@H]6O[C@H](CO)[C@@H](O)[C@H](O)[C@H]6O)C(C)(C)[C@@H]5CC[C@]43C)[C@@H]2C1 [R1, zingibroside R1]
HUVEC tube formation [2, 4]: markedly inhibited
tumour inhibition rate (B16F10 melanoma tumour; 25 mg/kg intraperitoneal): 46.6%
mean tumour weight (B16F10 melanoma tumour; 25 mg/kg intraperitoneal): 0.80 g
tumour growth (tumour volume) (B16F10 melanoma tumour): significantly suppressed tumour growth
